From patent US4994376A, “Detection of bacteroides gingivalis” (priority 1987, dated 1991)
Read-outs that look alike come from different tables or passages of the source.

Tests used:
Type in all cases: biochemical
B. asaccharolyticus = details: β-naphthylamine liberated after 60 minutes, 37° C.
Procedure, shortened: (§1)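 N-CBz-glycyl-glycyl-L-arginine-β-naphthylamide was hydrolysed for 1 hour at 37 °C, then coupled with Fast Garnet GBC (0.5 mg/ml) in 1M acetic acid buffer, pH 4.2, containing 10% Tween 20. After 15 minutes at room temperature, absorbance was read at 525 nm against a no-enzyme blank; activity is given as nmol β-naphthylamine released per 60 min.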

B. levii = details: β-naphthylamine liberated after 60 minutes, 37° C.
Procedure, shortened: as §1

B. loescheii = details: β-naphthylamine liberated after 60 minutes, 37° C.
Procedure, shortened: as §1

B. mel. ss. intermedius = details: β-naphthylamine liberated after 60 minutes, 37° C.
Procedure, shortened: as §1

Bacteroides gingivalis = details: β-naphthylamine liberated after 60 minutes, 37° C.
Procedure, shortened: as §1

C. ochracea = details: strain ATCC 27872; β-naphthylamine liberated after 60 minutes, 37° C.
Procedure, shortened: as §1

[1] = system: Capnocytophaga gingivalis; details: strain ATCC 33624; β-naphthylamine liberated after 60 minutes, 37° C.
Procedure, shortened: as §1

Capnocytophaga sp. = details: strain JD3-5; β-naphthylamine liberated after 60 minutes, 37° C.
Procedure, shortened: as §1

B. corporis = assay: Aminopeptidase activity on β-naphthylamide substrates; details: strain ATCC 33547; β-naphthylamine liberated after 60 minutes, 37° C.
Procedure, shortened: as §1

B. denticola = assay: as above; details: strain ATCC 33185; β-naphthylamine liberated after 60 minutes, 37° C.
Procedure, shortened: as §1

B. intermedius = assay: as above; details: strain ATCC 25611; β-naphthylamine liberated after 60 minutes, 37° C.
Procedure, shortened: as §1

B. melaninogenicus = assay: as above; details: strain ATCC 25845; β-naphthylamine liberated after 60 minutes, 37° C.
Procedure, shortened: as §1

C. sputigena = assay: as above; details: strain ATCC 33123; β-naphthylamine liberated after 60 minutes, 37° C.
Procedure, shortened: as §1

[2] = system: Actinobacillus actinomycetemcomitans; details: β-naphthylamine liberated after 60 minutes, 37° C.
Procedure, shortened: (§2)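 Readout: absorbance at 525 nm (or visual match to standard solutions) after diazo coupling with Fast Garnet GBC. Substrate N-CBz-glycyl-glycyl-L-arginine-β-naphthylamide, 1 h, 37° C. Values = nmol β-naphthylamine released per 60 min; no-enzyme mixture as control.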

Actinomyces israeli = details: β-naphthylamine liberated after 60 minutes, 37° C.
Procedure, shortened: as §2

Eikenella corrodens = details: strain BP1-6; β-naphthylamine liberated after 60 minutes, 37° C.
Procedure, shortened: as §2

Fusobacterium nucleatum = details: β-naphthylamine liberated after 60 minutes, 37° C.
Procedure, shortened: as §2

S. mutans = details: strain ATCC 25175; β-naphthylamine liberated after 60 minutes, 37° C.
Procedure, shortened: as §2

Streptococcus mitis = details: β-naphthylamine liberated after 60 minutes, 37° C.
Procedure, shortened: as §2

V. parvula = details: strain ATCC 10790; β-naphthylamine liberated after 60 minutes, 37° C.
Procedure, shortened: as §2

Veillonella sp. = details: strain SE1M2; β-naphthylamine liberated after 60 minutes, 37° C.
Procedure, shortened: as §2

A. equuli = assay: Aminopeptidase activity on β-naphthylamide substrates; details: strain ATCC 19392; β-naphthylamine liberated after 60 minutes, 37° C.
Procedure, shortened: as §2

A. suis = assay: as above; details: strain ATCC 15557; β-naphthylamine liberated after 60 minutes, 37° C.
Procedure, shortened: as §2

F. periodonticum = assay: as above; details: strain EK1-15; β-naphthylamine liberated after 60 minutes, 37° C.
Procedure, shortened: as §2

Haemophilus aphrophilus = assay: as above; details: β-naphthylamine liberated after 60 minutes, 37° C.
Procedure, shortened: as §2

L. fermentum = assay: as above; details: strain ATCC 11581; β-naphthylamine liberated after 60 minutes, 37° C.
Procedure, shortened: as §2

Lactobacillus casei = assay: as above; details: β-naphthylamine liberated after 60 minutes, 37° C.
Procedure, shortened: as §2

S. salivarius = assay: as above; details: β-naphthylamine liberated after 60 minutes, 37° C.
Procedure, shortened: as §2

Cl.N=C(N)NCCC[C@H](NC(=O)CNC(=O)CNC(=O)OCc1ccccc1)C(=O)Nc1ccc2ccccc2c1 [N-CBz-Gly-Gly-Arg, N-carbobenzoxy-glycyl-glycyl-L-arginine-β-naphthylamide hydrochloride]
Aminopeptidase activity (B. asaccharolyticus; strain 536B): 1 nmol | Aminopeptidase activity (B. asaccharolyticus; strain ATCC 18569): 0 nmol | Aminopeptidase activity (B. asaccharolyticus; strain ATCC 25260): 0 nmol | Aminopeptidase activity (B. asaccharolyticus; strain ATCC 27067): 0 nmol | Aminopeptidase activity (B. asaccharolyticus; strain NY446): 2 nmol | Aminopeptidase activity (B. levii; strain 18-1-5): 0 nmol | Aminopeptidase activity (B. levii; strain 18-1-8): 1 nmol | Aminopeptidase activity (B. loescheii; strain ATCC 15930): 1 nmol | Aminopeptidase activity (B. loescheii; strain VPI4196): 0 nmol | Aminopeptidase activity (B. mel. ss. intermedius; strain ATCC 25261): 0 nmol | Aminopeptidase activity (B. mel. ss. intermedius; strain ATCC 33563): 1 nmol | Aminopeptidase activity (B. mel. ss. intermedius; strain NCTC 9336): 1 nmol | Aminopeptidase activity (Bacteroides gingivalis; strain 9-14K-1): 61 nmol | Aminopeptidase activity (Bacteroides gingivalis; strain 11-1-2): 92 nmol | Aminopeptidase activity (Bacteroides gingivalis; strain 381): 91 nmol | Aminopeptidase activity (Bacteroides gingivalis; strain 1021): 44 nmol | Aminopeptidase activity (Bacteroides gingivalis; strain ATCC 33277): 84 nmol | Aminopeptidase activity (Bacteroides gingivalis; strain FAYE 19m-1): 143 nmol | Aminopeptidase activity (C. ochracea): 8 nmol | Aminopeptidase activity [1]: 7 nmol | Aminopeptidase activity (Capnocytophaga sp.): 0 nmol | Aminopeptidase activity (B. corporis): 1 nmol | Aminopeptidase activity (B. denticola): 0 nmol | Aminopeptidase activity (B. intermedius): 0 nmol | Aminopeptidase activity (B. melaninogenicus): 0 nmol | Aminopeptidase activity (C. sputigena): 5 nmol | Aminopeptidase activity ([2]; strain 67): 0 nmol | Aminopeptidase activity ([2]; strain 75): 0 nmol | Aminopeptidase activity ([2]; strain ATCC 29523): 0 nmol | Aminopeptidase activity ([2]; strain NCTC 9709): 1 nmol | Aminopeptidase activity ([2]; strain Y4): 0 nmol | Aminopeptidase activity (Actinomyces israeli; strain ATCC 12103): 0 nmol | Aminopeptidase activity (Actinomyces israeli; strain DK2-3): 0 nmol | Aminopeptidase activity (Eikenella corrodens): 0 nmol | Aminopeptidase activity (Fusobacterium nucleatum; strain 2): 3 nmol | Aminopeptidase activity (Fusobacterium nucleatum; strain ATCC 25586): 0 nmol | Aminopeptidase activity (Fusobacterium nucleatum; strain D31A-24): 2 nmol | Aminopeptidase activity (S. mutans): 0 nmol | Aminopeptidase activity (Streptococcus mitis; strain ATCC 9815): 0 nmol | Aminopeptidase activity (Streptococcus mitis; strain ATCC 15909): 0 nmol | Aminopeptidase activity (Streptococcus mitis; strain ATCC 15912): 0 nmol | Aminopeptidase activity (V. parvula): 0 nmol | Aminopeptidase activity (Veillonella sp.): 0 nmol | Aminopeptidase activity (A. equuli): 0 nmol | Aminopeptidase activity (A. suis): 0 nmol | Aminopeptidase activity (F. periodonticum): 0 nmol | Aminopeptidase activity (Haemophilus aphrophilus; strain ATCC 13252): 1 nmol | Aminopeptidase activity (Haemophilus aphrophilus; strain ATCC 19415): 1 nmol | Aminopeptidase activity (Haemophilus aphrophilus; strain NCTC 5908): 0 nmol | Aminopeptidase activity (L. fermentum): 0 nmol | Aminopeptidase activity (Lactobacillus casei; strain ATCC 7469): 0 nmol | Aminopeptidase activity (Lactobacillus casei; strain ATCC 11578): 0 nmol | Aminopeptidase activity (Lactobacillus casei; strain ATCC 11582): 0 nmol | Aminopeptidase activity (S. salivarius; strain ATCC 9759): 0 nmol | Aminopeptidase activity (S. salivarius; strain ATCC 25975): 0 nmol

NC(=O)[C@@H](N)CCC(=O)O [α-Glu, α -glutamine]
Aminopeptidase activity (B. asaccharolyticus; strain 536B): 0 nmol | Aminopeptidase activity (B. asaccharolyticus; strain ATCC 18569): 0 nmol | Aminopeptidase activity (B. asaccharolyticus; strain ATCC 25260): 0 nmol | Aminopeptidase activity (B. asaccharolyticus; strain ATCC 27067): 0 nmol | Aminopeptidase activity (B. asaccharolyticus; strain NY446): 0 nmol | Aminopeptidase activity (B. levii; strain 18-1-5): 0 nmol | Aminopeptidase activity (B. levii; strain 18-1-8): 2 nmol | Aminopeptidase activity (B. loescheii; strain ATCC 15930): 0 nmol | Aminopeptidase activity (B. loescheii; strain VPI4196): 0 nmol | Aminopeptidase activity (B. mel. ss. intermedius; strain ATCC 25261): 0 nmol | Aminopeptidase activity (B. mel. ss. intermedius; strain ATCC 33563): 0 nmol | Aminopeptidase activity (B. mel. ss. intermedius; strain NCTC 9336): 0 nmol | Aminopeptidase activity (Bacteroides gingivalis; strain 9-14K-1): 0 nmol | Aminopeptidase activity (Bacteroides gingivalis; strain 11-1-2): 0 nmol | Aminopeptidase activity (Bacteroides gingivalis; strain 381): 0 nmol | Aminopeptidase activity (Bacteroides gingivalis; strain 1021): 0 nmol | Aminopeptidase activity (Bacteroides gingivalis; strain ATCC 33277): 1 nmol | Aminopeptidase activity (Bacteroides gingivalis; strain FAYE 19m-1): 0 nmol | Aminopeptidase activity (C. ochracea): 5 nmol | Aminopeptidase activity [1]: 5 nmol | Aminopeptidase activity (Capnocytophaga sp.): 0 nmol | Aminopeptidase activity (B. corporis): 0 nmol | Aminopeptidase activity (B. denticola): 0 nmol | Aminopeptidase activity (B. intermedius): 0 nmol | Aminopeptidase activity (B. melaninogenicus): 1 nmol | Aminopeptidase activity (C. sputigena): 7 nmol | Aminopeptidase activity ([2]; strain 67): 0 nmol | Aminopeptidase activity ([2]; strain 75): 0 nmol | Aminopeptidase activity ([2]; strain ATCC 29523): 0 nmol | Aminopeptidase activity ([2]; strain NCTC 9709): 0 nmol | Aminopeptidase activity ([2]; strain Y4): 0 nmol | Aminopeptidase activity (Actinomyces israeli; strain ATCC 12103): 0 nmol | Aminopeptidase activity (Actinomyces israeli; strain DK2-3): 0 nmol | Aminopeptidase activity (Eikenella corrodens): 0 nmol | Aminopeptidase activity (Fusobacterium nucleatum; strain 2): 0 nmol | Aminopeptidase activity (Fusobacterium nucleatum; strain ATCC 25586): 0 nmol | Aminopeptidase activity (Fusobacterium nucleatum; strain D31A-24): 1 nmol | Aminopeptidase activity (S. mutans): 0 nmol | Aminopeptidase activity (Streptococcus mitis; strain ATCC 9815): 0 nmol | Aminopeptidase activity (Streptococcus mitis; strain ATCC 15909): 0 nmol | Aminopeptidase activity (Streptococcus mitis; strain ATCC 15911): 0 nmol | Aminopeptidase activity (Streptococcus mitis; strain ATCC 15912): 0 nmol | Aminopeptidase activity (V. parvula): 0 nmol | Aminopeptidase activity (Veillonella sp.): 0 nmol | Aminopeptidase activity (A. equuli): 0 nmol | Aminopeptidase activity (A. suis): 0 nmol | Aminopeptidase activity (F. periodonticum): 0 nmol | Aminopeptidase activity (Haemophilus aphrophilus; strain ATCC 13252): 0 nmol | Aminopeptidase activity (Haemophilus aphrophilus; strain ATCC 19415): 0 nmol | Aminopeptidase activity (Haemophilus aphrophilus; strain NCTC 5908): 0 nmol | Aminopeptidase activity (L. fermentum): 0 nmol | Aminopeptidase activity (Lactobacillus casei; strain ATCC 7469): 0 nmol | Aminopeptidase activity (Lactobacillus casei; strain ATCC 11578): 3 nmol | Aminopeptidase activity (Lactobacillus casei; strain ATCC 11582): 3 nmol | Aminopeptidase activity (S. salivarius; strain ATCC 9759): 0 nmol | Aminopeptidase activity (S. salivarius; strain ATCC 25975): 0 nmol
